According to article PMC8037814, “Polymorphic Characterization, Pharmacokinetics, and Anti-Inflammatory Activity of Ginsenoside Compound K Polymorphs” (Molecules, 2021):
“And” between values parts separate entries of the source, which are not always exact repeats. Equal values may be shown once.

Tests used:
[1] = Pharmacokinetics after oral administration of CK polymorphs in rats (20 mg/kg); assay type: in vivo, Sprague-Dawley rats; settings: for Fabs (absolute bioavailability): p.o. 20 mg/kg vs i.v. 10 mg/kg, dose-adjusted AUC ratio
[2] = as above; assay type: in vivo, Sprague-Dawley rats; settings: p.o. 20 mg/kg, individual rats 1-3
Procedure: All samples were analyzed with a triple quadrupole LC-MS/MS (API 4000 LC-MS/MS, AB Sciex, Framingham, MA, USA) coupled with an Agilent 1200 HPLC system (Agilent Technologies, Palo Alto, CA, USA). The MS was equipped with an electrospray system (ESI). The N2 gas temperature and ion-spray voltage were set to 550 °C and 4.5 kV, respectively. CK was measured in multiple reaction monitoring (MRM) mode using a negative electrospray ionization source at m/z 667.4 → 621.2 for CK (CID 25.6 v) and m/z 271.2 → 228.8 for internal standard (IS, (E)-5-(4-fluorostyryl)-2-isopropylbenzene-1,3-diol, Welichem Biotech Inc., Wayburne Drive Burnaby, BC, Canada) (CID 28.3 v) with a dwell time of 0.1 s.
Rats were divided randomly into 5 groups of six animals each (sex in half) and given 7 days to acclimatize to the facility before the experiments began. The four forms of CK were suspended in 0.5% sodium carboxymethyl cellulose (CMC-Na) solution and orally administered to rats at a dose of 20 mg/kg. A CK solution in a mixed solvent of dimethyl sulfoxide (DMSO)/castor oil/physiologic saline (3:5:92, v/v) was intravenously administered to the remaining group via the tail vein at a dose of 10 mg/kg. Blood samples were collected by retro-orbital puncture at the following times: 0.167, 0.333, 0.667, 1, 2, 3, 4, 6, 9, 12, and 24 h for the oral administration, and at 0.0083, 0.05, 0.133, 0.25, 0.5, 1, 2, 4, 6, and 9 h for the intravenous administration. Plasma samples were obtained by centrifuging a heparinized blood tube at 4000 rpm for 5 min and then stored at −70 °C until analysis.
The procedure for drug extraction from plasma samples was as follows: 0.2 mL acetonitrile, 0.2 mL plasma sample, and 10 μL IS (1 µg/mL) were added into a 1.5 mL Eppendorf-type tube. This mixture was vortexed for 1 min and then treated with 0.8 mL of methyl tert-butyl ether (MTBE) to precipitate the plasma proteins. After a mechanical vortex for 1 min and subsequent centrifugation (4000 rpm, 5 min), 0.8 mL of the supernatant was transferred and blow-dried with N2 at 40 °C in a water bath. Finally, the residue was dissolved in 120 μL of mobile phase, and then 10 μL was subjected to HPLC for analysis. […] Intra- and inter-day precision and accuracy never exceeded 15% by analyzing six replicate samples.
The CK pharmacokinetic parameters in rats, including the area under the curve (AUC(0–t) and AUC(0–∞)), mean residence time (MRT(0–t) and MRT(0–∞)), maximum concentration (Cmax), time to maximum concentration (Tmax), half-life (t1/2), apparent distribution volume (V), and total plasma clearance (CL), were derived from plasma concentration-time curves by using non-compartmental analysis (NCA) with DAS 2.0 software (Drug And Statistics, Mathematical Pharmacology Professional Committee of China, Shanghai, China). The absolute bioavailability (Fabs) was calculated from the dose-adjusted ratio of AUCp.o. to AUCi.v.. One-way analysis of variance (ANOVA) by SPSS 11.5 (SPSS Inc., Chicago, IL, USA) was conducted to compare the primary PK parameters.

[3] = DSC thermal analysis of CK polymorphs; assay type: physicochemical; settings: 20 K/min from 20 to 400 °C, dry nitrogen flow
Procedure: DSC measurements were performed on a DSC204 Phoenix calorimeter (NETZSCH, Selb, Germany) with a heating rate of 20 K/min from 20 to 400 °C. The dry nitrogen flow was about 50 mL/min. Data were analyzed using NETZSCH analysis software.

[4] = tested on: carrageenan-induced acute paw inflammation; test: Paw swelling test induced by carrageenan in rats; assay type: in vivo, Sprague-Dawley rats; design: paw volume: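 right hind paw volume measured with a plethysmometer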; settings: for paw volume / paw edema: mean±SD of 6 rats; for edema inhibition: versus model group
Procedure: Rats were divided into 11 groups of six animals each (sex in half): the normal group, the model group, indomethacin group (1 mg/kg), and form I, II, III, IV groups (each form set 10 mg/kg and 20 mg/kg groups, respectively). Indomethacin and CK were ground and suspended in 0.5% CMC-Na solution. […] The same volume of saline was injected into the normal group. […] Paw edema and inhibitory rate were calculated as the following formula, and the differences among groups were compared with the t-test. Paw edema (%) = (Vn − V0)/V0 × 100%. Vn: paw volume at different time intervals after carrageenan injection. V0: paw volume before carrageenan injection. Inhibitory rate (%) = (Em − Ee)/Em × 100%. Em: paw edema of the model group. Ee: paw edema of the experimental group.

[5] = female rats, p.o. 20 mg/kg, mean ± SD (n = 3), 20 mg/kg
[6] = male rats, p.o. 20 mg/kg, mean ± SD (n = 3), 20 mg/kg
[7] = 10 mg/kg p.o. qd 3 days, 3h after carrageenan, listed as From II
[8] = 10 mg/kg p.o. qd 3 days, 4h after carrageenan, listed as From II
[9] = 10 mg/kg p.o. qd 3 days, 5h after carrageenan, listed as From II
[10] = 10 mg/kg p.o. qd 3 days, 6h after carrageenan, listed as From II
[11] = 20 mg/kg p.o. qd 3 days, 3h after carrageenan, listed as From II
[12] = 20 mg/kg p.o. qd 3 days, 4h after carrageenan
[13] = 20 mg/kg p.o. qd 3 days, 4h after carrageenan, listed as From II
[14] = 20 mg/kg p.o. qd 3 days, 5h after carrageenan, listed as From II
[15] = 20 mg/kg p.o. qd 3 days, 6h after carrageenan, listed as From II

In the case of `CC(C)=CCCC(C)(OC1OC(CO)C(O)C(O)C1O)C1CCC2(C)C1C(O)CC1C3(C)CCC(O)C(C)(C)C3CCC12C` [Form II, 20-O-β-D-glucopyranosyl-20(S)-protopanaxadiol], the “maximum differences of the average Cmax and AUC(0–∞) values, form II compared to form IV” value ([1]; female groups, p.o. 20 mg/kg) is reported as 2.1 fold, the “Fabs (absolute bioavailability)” value ([1]; female rats) is reported as 7.87% and the t1/2z ([1]; female rats, p.o. 20 mg/kg, individual rats 1-3, 20 mg/kg) is reported as 3.96 h and 2.99 h and 2.49 h. The “AUC(0–t)” value [1, 5] was 2447.2 ± 1828.5 ng·h/mL, the “AUC(0–∞)” value [1, 5] was 2551.23 ± 1967.99 ng·h/mL and 2551.2 ± 1968.0 ng·h/mL and the CLz/F [1, 5] was 180 ± 96.5 mL/min/kg. For the same molecule, the Cmax [1, 5] was 459.59 ± 289.63 ng/mL and 459.6 ± 289.6 ng/mL, the Vz/F [1, 5] was 45.3 ± 20.0 L/kg and the t1/2z [1, 5] was 3.15 ± 0.75 h and 3.2 ± 0.75 h. The AUC(0-t) ([1]; female, Sprague-Dawley, rat, plasma, po, 20 mg/kg, female rats, p.o. 20 mg/kg, mean ± SD (n = 3)) was 2450 ± 1830 ng·h/mL, the CL/F ([1]; female, Sprague-Dawley, rat, plasma, po, 20 mg/kg, female rats, p.o. 20 mg/kg, mean ± SD (n = 3), read-out: CLz/F (converted)) was 180 mL/min/kg and the “maximum differences of the average Cmax and AUC(0–∞) values, form II compared to form IV” value ([1]; male groups, p.o. 20 mg/kg) was 1.6 fold. The “Fabs (absolute bioavailability)” value ([1]; male rats) was 4.07%, the Vz/F ([1]; male rats, p.o. 20 mg/kg, individual rats 1-3, 20 mg/kg) was 102.18 L/kg and 80.31 L/kg and 39.93 L/kg and the “AUC(0–t)” value [1, 6] was 1191.06 ± 471.90 ng·h/mL and 1191.1 ± 471.90 ng·h/mL. For the same molecule, the “AUC(0–∞)” value [1, 6] was 1235.2 ± 474.45 ng·h/mL, the CLz/F [1, 6] was 299.5 ± 118 mL/min/kg and 300 ± 118 mL/min/kg and the Cmax [1, 6] was 232.33 ± 68.97 ng/mL and 232.3 ± 68.97 ng/mL. The Vz/F [1, 6] was 74.14 ± 31.58 L/kg and 74.1 ± 31.6 L/kg, the t1/2z [1, 6] was 2.93 ± 1.14 h and 2.9 ± 1.1 h and the AUC(0-inf) ([1]; male, Sprague-Dawley, rat, plasma, po, 20 mg/kg, male rats, p.o. 20 mg/kg, mean ± SD (n = 3)) was 1240 ± 474 ng·h/mL. The “AUC(0-t)” value ([2]; female rats) was 4557.73 ng·h/mL and 1338.42 ng·h/mL and 1445.59 ng·h/mL, the “AUC(0-∞)” value ([2]; female rats) was 4823.11 ng·h/mL and 1371.40 ng·h/mL and 1459.17 ng·h/mL and the CLz/F ([2]; female rats) was 69.2 mL/min/kg and 243 mL/min/kg and 228.5 mL/min/kg. The Cmax ([2]; female rats) was 777.00 ng/mL and 209.65 ng/mL and 392.12 ng/mL, the Vz/F ([2]; female rats) was 23.70 L/kg and 62.95 L/kg and 49.26 L/kg and the “AUC(0-t)” value ([2]; male rats) was 1095.34 ng·h/mL and 774.36 ng·h/mL and 1703.47 ng·h/mL. The “AUC(0-∞)” value ([2]; male rats) was 1198.51 ng·h/mL and 780.14 ng·h/mL and 1726.92 ng·h/mL, the CLz/F ([2]; male rats) was 278.2 mL/min/kg and 427.3 mL/min/kg and 193 mL/min/kg and the Cmax ([2]; male rats) was 187.99 ng/mL and 197.22 ng/mL and 311.79 ng/mL. For the same molecule, the t1/2z ([2]; male rats) was 2.17 h and 2.39 h and 4.24 h, the “DSC onset of the decomposition endotherm (thermodynamical stability)” value [3] was 263.1 °C and the paw volume ([4]; 10 mg/kg p.o. qd 3 days, 0h (before carrageenan), listed as From II) was 1.57±0.12. The paw edema [4, 7] was 55.25±18.20%, the paw volume [4, 7] was 2.41±0.16 and the edema inhibition [4, 7] was 14.03%. The paw edema [4, 8] was 47.34±11.94%, the paw volume [4, 8] was 2.30±0.14 and the edema inhibition [4, 8] was 24.09%. The paw edema [4, 9] was 33.73±13.72%, the paw volume [4, 9] was 2.08±0.12 and the edema inhibition [4, 9] was 34.84%. It also gave a paw edema [4, 10] of 27.25±10.94%, a paw volume [4, 10] of 1.98±0.08 and an edema inhibition [4, 10] of 30.70%. For the same molecule, the paw volume ([4]; 20 mg/kg p.o. qd 3 days, 0h (before carrageenan), listed as From II) was 1.65±0.14, the paw edema [4, 11] was 45.81±8.11% and the paw volume [4, 11] was 2.40±0.15. It also gave an edema inhibition [4, 11] of 28.72%, a paw edema [4, 12] of 39.7 ± 6.4% and a paw edema [4, 13] of 39.71±6.48%. It also gave a paw volume [4, 13] of 2.30±0.14, an edema inhibition [4, 12] of 36.3% and an edema inhibition [4, 13] of 36.33%. The paw edema [4, 14] was 29.62±8.06%, the paw volume [4, 14] was 2.13±0.15 and the edema inhibition ([4]; 20 mg/kg p.o. qd 3 days, 5h after carrageenan) was 42.7%. It also gave an edema inhibition [4, 14] of 42.77%, a paw edema [4, 15] of 23.59±8.59% and a paw volume [4, 15] of 2.03±0.14. It also gave an edema inhibition ([4]; 20 mg/kg p.o. qd 3 days, 6h after carrageenan) of 40.0% and an edema inhibition [4, 15] of 40.00%.
